According to patent US9765056B2, “Indole and pyrrole compounds, a process for their preparation and pharmaceutical compositions containing them” (LES LABORATOIRES SERVIER, priority 2013, dated 2017):
Structures can show the parent of a compound that is named as a salt.

Columns and labels:
[1] = test system: RS4;11 leukaemia tumour line; assay: In vitro cytotoxicity, Microculture Tetrazolium Assay (MTT); assay type: cell-based; details: RS4;11 cells, 48 hours exposure
Method: The cytotoxicity studies were carried out on the RS4;11 leukaemia tumour line.
The cells are distributed onto microplates and exposed to the test compounds for 48 hours. The cell viability is then quantified by a colorimetric assay, the Microculture Tetrazolium Assay (Cancer Res., 1987, 47, 939-942).

Bcl-2 protein = Bcl-2 protein (histag-Bcl-2, UniProtKB P10415) (Homo sapiens (Human), UniProt P10415); assay: Inhibition of Bcl-2 by the fluorescence polarisation technique; assay type: binding; details: fluorescence polarisation test; method A, or method B where underlined (underlining not visible); read-out: IC50 (nM) Bcl-2 FP
Source text: Inhibition of Bcl-2 by the fluorescence polarisation technique

Chain of Bcl-2 protein (P10415 whole entry): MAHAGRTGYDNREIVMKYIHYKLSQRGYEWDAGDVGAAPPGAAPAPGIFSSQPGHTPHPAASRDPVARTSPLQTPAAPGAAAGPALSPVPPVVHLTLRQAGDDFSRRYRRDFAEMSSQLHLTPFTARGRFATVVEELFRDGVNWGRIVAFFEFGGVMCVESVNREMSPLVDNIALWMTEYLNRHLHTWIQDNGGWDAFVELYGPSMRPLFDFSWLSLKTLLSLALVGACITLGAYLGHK

| Compound | IC50 (Bcl-2 protein) [nM] | IC50 ([1]; Homo sapiens) [nM] | IC50 [1] [nM] |
| --- | --- | --- | --- |
| NC[C@@H]1Cc2ccccc2CN1C(=O)c1cc(NCc2ccccc2)ccc1-n1nc(C(=O)N(c2ccccc2)c2ccccc2)c2ccccc21 [Example 142, 1-{2-[(3S)-3-(Aminomethyl)-1,2,3,4-tetrahydroisoquinoline-2-carbonyl]-4-(benzylamino)phenyl}-N,N-diphenyl-1H-indazole-3-carboxamide] | 70.6 | 2290 | – |
| Cc1cc(C(=O)N(c2ccccc2)c2ccc(O)cc2)cn1-c1cc2c(cc1C(=O)N1Cc3ccccc3C[C@H]1CN1CCOCC1)OCO2 [Example 108, N-(4-Hydroxyphenyl)-5-methyl-1-(6-{[(3S)-3-(morpholin-4-ylmethyl)-3,4-dihydroisoquinolin-2(1H)-yl]carbonyl}-1,3-benzodioxol-5-yl)-N-phenyl-1H-pyrrole-3-carboxamide hydrochloride] | 35.5 | 544 | – |
| CCCCN(CCCC)C(=O)c1nn(-c2ccccc2C(=O)N2Cc3ccccc3C[C@H]2CN)c2ccccc12 [Example 121, 1-{2-[(3S)-3-(Aminomethyl)-1,2,3,4-tetrahydroisoquinoline-2-carbonyl]-phenyl}-N,N-dibutyl-1H-indazole-3-carboxamide] | 448 | 8770 | – |
| COc1cc(-n2cc(C(=O)N(c3ccccc3)C3CCCCC3)c3ccccc32)c(C(=O)N2Cc3ccccc3C[C@H]2CN2CCN(C)CC2)cc1O [Example 187, N-Cyclohexyl-1-{4-hydroxy-5-methoxy-2-[(3S)-3-[(4-methylpiperazin-1-yl)methyl]-1,2,3,4-tetrahydroisoquinoline-2-carbonyl}phenyl]-N-phenyl-1H-indole-3-carboxamide dihydrochloride] | 21.6 | 1990 | – |
| Cc1cc(C(=O)N(c2ccccc2)c2ccc(O)cc2)cn1-c1cc(O)ccc1C(=O)N1Cc2ccccc2C[C@H]1CN1CCOCC1 [Example 15, 1-(5-Hydroxy-2-{[(3S)-3-(morpholin-4-ylmethyl)-3,4-dihydroisoquinolin-2(1H)-yl]carbonyl}phenyl)-N-(4-hydroxyphenyl)-5-methyl-N-phenyl-1H-pyrrole-3-carboxamide] | 22.1 | 759 | – |
| CC(=O)Oc1ccc(N(C(=O)c2cn(-c3cc4c(cc3C(=O)N3Cc5ccccc5C[C@H]3CN3CCN(C)CC3)OCO4)c3ccccc23)c2ccc(C)cc2)cc1 [Example 60, 4-[(4-Methylphenyl){[1-(6-{[(3S)-3-[(4-methylpiperazin-1-yl)methyl]-3,4-dihydroisoquinolin-2(1H)-yl]carbonyl}-1,3-benzodioxol-5-yl)-1H-indol-3-yl]-carbonyl}amino]phenyl acetate] | 206 | – | 89.5 |
| CN(C)C[C@@H]1Cc2ccccc2CN1C(=O)c1cc2c(cc1-n1cc(C(=O)N(c3ccccc3)c3ccc(O)cc3)c3ccccc31)OCO2 [Example 180, 1-{6-[(3S)-3-[(Dimethylamino)methyl]-1,2,3,4-tetrahydroisoquinoline-2-carbonyl]-2H-1,3-benzodioxol-5-yl}-N-(4-hydroxyphenyl)-N-phenyl-1H-indole-3-carboxamide hydrochloride] | 11 | 210 | – |
| NC[C@@H]1Cc2ccccc2CN1C(=O)c1ccc(Cl)cc1-n1cc(C(=O)N(c2ccccc2)c2ccc(O)cc2)c2ccccc21 [Example 156, 1-{2-[(3S)-3-(Aminomethyl)-1,2,3,4-tetrahydroisoquinoline-2-carbonyl]-5-chlorophenyl}-N-(4-hydroxyphenyl)-N-phenyl-1H-indole-3-carboxamide] | 11.7 | 450 | – |
| Cc1cc(C(=O)N(c2ccccc2)c2ccc3[nH]ccc3c2)cn1-c1ccccc1C(=O)N1Cc2ccccc2C[C@H]1CN(C)C [Example 10, 1-(2-{[(3S)-3-[(Dimethylamino)methyl]-3,4-dihydroisoquinolin-2(1H)-yl]carbonyl}phenyl)-N-(1H-indol-5-yl)-5-methyl-N-phenyl-1H-pyrrole-3-carboxamide] | 146 | 2220 | – |
| Cc1cc(C(=O)N(c2ccc(O)cc2)c2ccc3[nH]ccc3c2)cn1-c1ccccc1C(=O)N1Cc2ccccc2C[C@H]1CN(C)C [Example 23, 1-(2-{[(3S)-3-[(Dimethylamino)methyl]-3,4-dihydroisoquinolin-2(1H)-yl]carbonyl}phenyl)-N-(4-hydroxyphenyl)-N-(1H-indol-5-yl)-5-methyl-1H-pyrrole-3-carboxamide] | 26.1 | 445 | – |
| NC[C@@H]1Cc2ccccc2CN1C(=O)c1cc(NC(=O)CSc2ccccc2)ccc1-n1cc(C(=O)N(c2ccccc2)c2ccc(O)cc2)c2ccccc21 [Example 157, 1-{2-[(3S)-3-(Aminomethyl)-1,2,3,4-tetrahydroisoquinoline-2-carbonyl]-4-[2-(phenylsulphanyl)acetamido]phenyl}-N-(4-hydroxyphenyl)-N-phenyl-1H-indole-3-carboxamide] | 16.1 | 487 | – |
| COc1ccc(C(=O)N2Cc3ccccc3C[C@H]2CN2CCCCC2)c(-n2cc(C(=O)N(c3ccccc3)c3ccc(O)cc3)c3ccccc32)c1 [Example 169, N-(4-Hydroxyphenyl)-1-{5-methoxy-2-[(3S)-3-(piperidin-1-ylmethyl)-1,2,3,4-tetrahydroisoquinoline-2-carbonyl]phenyl}-N-phenyl-1H-indole-3-carboxamide hydrochloride] | 108 | 854 | – |
| CN1CCN(C[C@@H]2Cc3ccccc3CN2C(=O)c2cc3c(cc2-n2cc(C(=O)N(c4ccc(O)cc4)c4ccc(F)c(Cl)c4)c4ccccc42)OCO3)CC1 [Example 58, N-(3-Chloro-4-fluorophenyl)-N-(4-hydroxyphenyl)-1-(6-{[(3S)-3-[(4-methylpiperazin-1-yl)methyl]-3,4-dihydroisoquinolin-2(1H)-yl]carbonyl}-1,3-benzodioxol-5-yl)-1H-indole-3-carboxamide hydrochloride] | 20.5 | 190 | – |
| COc1cc(-n2nc(C(=O)N(c3ccccc3)c3ccccc3)c3ccccc32)c(C(=O)N2Cc3ccccc3C[C@H]2CN)cc1N [Example 152, 1-{4-Amino-2-[(3S)-3-(aminomethyl)-1,2,3,4-tetrahydroisoquinoline-2-carbonyl]-5-methoxyphenyl}-N,N-diphenyl-1H-indazole-3-carboxamide] | 218 | 2160 | – |

Stronger by IC50 (Bcl-2 protein), values ahead:

| IC50 (Bcl-2 protein) [nM] | Compound | IC50 ([1]; Homo sapiens) [nM] | IC50 [1] [nM] |
| --- | --- | --- | --- |
| 4.9 | Cc1cc(C(=O)N(c2ccc(O)cc2)c2ccc3c(ccn3C)c2)cn1-c1cc(Cl)c(F)cc1C(=O)N1Cc2ccccc2C[C@H]1CN1CCN(C)CC1 [Example 77, 1-(5-Chloro-4-fluoro-2-{[(3S)-3-[(4-methylpiperazin-1-yl)methyl]-3,4-dihydroisoquinolin-2(1H)-yl]carbonyl}phenyl)-N-(4-hydroxyphenyl)-5-methyl-N-(1-methyl-1H-indol-5-yl)-1H-pyrrole-3-carboxamide hydrochloride] | 207 | – |
| 3.7 | Cc1cc(C(=O)N(c2ccc(O)cc2)c2ccc(Cl)cc2)cn1-c1cc2c(cc1C(=O)N1Cc3ccccc3C[C@H]1CN1CCN(C)CC1)OCO2 [Example 85, N-(4-Chlorophenyl)-N-(4-hydroxyphenyl)-5-methyl-1-(6-{[(3S)-3-[(4-methylpiperazin-1-yl)methyl]-3,4-dihydroisoquinolin-2(1H)-yl]carbonyl}-1,3-benzodioxol-5-yl)-1H-pyrrole-3-carboxamide] | 129 | – |
| 3.9 | Cc1ccc(N(C(=O)c2cc(C)n(-c3cc4c(cc3C(=O)N3Cc5ccccc5C[C@H]3CN3CCN(C)CC3)OCO4)c2)c2ccc(O)cc2)cc1 [Example 96, N-(4-Hydroxyphenyl)-5-methyl-N-(4-methylphenyl)-1-(6-{[(3S)-3-[(4-methylpiperazin-1-yl)methyl]-3,4-dihydroisoquinolin-2(1H)-yl]carbonyl}-1,3-benzodioxol-5-yl)-1H-pyrrole-3-carboxamide] | 157 | – |
| 3.1 | COc1cc(-n2cc(C(=O)N(c3ccc(O)cc3)c3ccc(F)cc3)c3ccccc32)c(C(=O)N2Cc3ccccc3C[C@H]2CN2CCN(C)CC2)cc1O [Example 201, N-(4-Fluorophenyl)-1-{4-hydroxy-5-methoxy-2-[(3S)-3-[(4-methylpiperazin-1-yl)methyl]-1,2,3,4-tetrahydroisoquinoline-2-carbonyl]phenyl}-N-(4-hydroxyphenyl)-1H-indole-3-carboxamide dihydrochloride] | 124 | – |
| 8 | Cc1cc(C(=O)N(c2ccccc2)c2ccc(O)cc2)cn1-c1cc(Cl)c(F)cc1C(=O)N1Cc2ccccc2C[C@H]1CN1CCN(C)CC1 [Example 28, 1-(5-Chloro-4-fluoro-2-{[(3S)-3-[(4-methylpiperazin-1-yl)methyl]-3,4-dihydroisoquinolin-2(1H)-yl]carbonyl}phenyl)-N-(4-hydroxyphenyl)-5-methyl-N-phenyl-1H-pyrrole-3-carboxamide] | 378 | – |
| 5.3 | Cc1ccc(N(C(=O)c2cc(C)n(-c3cc(Cl)ccc3C(=O)N3Cc4ccccc4C[C@H]3CN3CCN(C)CC3)c2)c2ccc(O)cc2)cc1 [Example 91, 1-(5-Chloro-2-{[(3S)-3-[(4-methylpiperazin-1-yl)methyl]-3,4-dihydroisoquinolin-2(1H)-yl]carbonyl}phenyl)-N-(4-hydroxyphenyl)-5-methyl-N-(4-methylphenyl)-1H-pyrrole-3-carboxamide] | 172 | – |
| 9.6 | Cc1cc(C(=O)N(c2ccc(O)cc2)c2ccc3[nH]ccc3c2)cn1-c1cc(Cl)cc(Cl)c1C(=O)N1Cc2ccccc2C[C@H]1CN1CCN(C)CC1 [Example 92, 1-(3,5-Dichloro-2-{[(3S)-3-[(4-methylpiperazin-1-yl)methyl]-3,4-dihydroisoquinolin-2(1H)-yl]carbonyl}phenyl)-N-(4-hydroxyphenyl)-N-(1H-indol-5-yl)-5-methyl-1H-pyrrole-3-carboxamide] | 202 | – |
